Patent US20020172990A1, “Cyclin dependent kinase 5 phosphorylation of disabled 1 protein” (priority 2002, published 2002)

System: Dab1 phosphorylation in embryonic neurons
Assay: Reelin stimulation of embryonic neurons, Dab1 immunoprecipitation and Western blot
Assay type: cell-based, mouse
Protocol: Stimulation of embryonic neurons with purified Reelin has been described previously (Keshvara et al., J Biol Chem 276:16008-16014, 2001). Briefly, neurons obtained by trituration of embryonic brains were treated either with purified recombinant Reelin or with a control supernatant for 15 minutes at 37° C. After incubation neurons were either snap frozen or lysed immediately. Reelin-treated neuronal pellets were lysed in cell lysis buffer (25 mM Tris-HCl, 1% Nonidet P-40, 150 mM NaCl, 5 mM EDTA, 1 mM sodium orthovanadate, 20 mM sodium fluoride, and 20 μg/ml each of aprotinin and leupeptin). Whole brains were also homogenized in this lysis buffer. Cell lysates as well as brain homogenates were clarified by centrifugation at 10,000× g at 4° C. for 20 min.
Cell or brain lysates were incubated with anti-Cdk5 or anti-Dab1 antibodies at 4° C. for 2 hr. Immune complexes were collected with protein G-agarose beads (Pierce) and washed three times with cell lysis buffer. Immunoprecipitates were boiled in SDS sample buffer, separated by SDS-PAGE, and blotted to nitrocellulose membranes. Nitrocellulose membranes were blocked with 5% non-fat dry milk in TBST (50 mM Tris, pH 7.4, 150 mM NaCl, 1% Tween 20) for 1 hr at room temperature. The following antibodies were used for various immunoblots: anti-PSer491 (1:1000), anti-Cdk5 (1:2000), anti-PY198 (1:100), 4G10 (1:2000) (Upstate Biotechnology, Lake Placid, N.Y.), and anti-Dab1 (CT38, 1:5000). All dilutions were made in blocking solution, and incubations were carried out at room temperature for one hour. The membranes were washed in TBST and incubated with horseradish peroxidase-conjugated secondary antibody (1:10,000) for 1 hr. Detection was carried out using Super Signal West Dura Extended Duration Substrate (Pierce).
Since the accumulation of hypophosphorylated Dab1 in Cdk5^−/− neurons implies that Reelin signaling is defective, we sought to determine whether the defect in Reelin signaling is intrinsic to Cdk5-deficient neurons or whether it arises as an indirect consequence of the ectopic location of these neurons. […]

Substance: Reelin: Large secreted glycoprotein; purified recombinant Reelin used to stimulate embryonic neurons
- Tyrosine phosphorylation of Dab1 (neurons from E16.5 Cdk5-/- embryos, Reelin-enriched DMEM vs DMEM alone, 4G10 anti-phosphotyrosine blot): sharp increase in tyrosine phosphorylation of Dab1
- Tyrosine phosphorylation of Dab1 (neurons from E16.5 reeler brains, exogenous Reelin 15 minutes at 37° C.): sharp increase in tyrosine phosphorylation of Dab1
- Serine 491 phosphorylation of Dab1 (neurons from E16.5 reeler brains, exogenous Reelin 15 minutes at 37° C., anti-PSer491 blot): did not cause any noticeable change
